Measured values reported in patent US7462600B2, “Macrolides” (Pfizer Inc, priority 2004, dated 2008).
Values after ≈ are worked out from the molar mass of the structure shown. Read-outs that look alike come from different tables or passages of the source.

Key:
Assay type in all cases: cell-based
[1] = test system: Streptococcus pneumoniae 1016; experiment: MIC, microtiter broth dilution (NCCLS M100-S14), S. pneumoniae 1016 (susceptible)
Method in brief: (§1)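 Where available, resistant strains were tested alongside the susceptible parent they derive from. The MIC, determined by tray-based broth dilution and NCCLS M100-S14 interpretation, served as the comparison value.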

[2] = test system: Streptococcus pneumoniae 1175; conditions: microtiter broth dilution
Method in brief: as §1

[3] = test system: Streptococcus pneumoniae 1095; conditions: microtiter broth dilution
Method in brief: as §1

[4] = test system: Streptococcus pyogenes 1079; experiment: MIC, microtiter broth dilution (NCCLS M100-S14), S. pyogenes 1079 (ermB)
Method in brief: as §1

[5] = test system: Haemophilus influenzae 1218; experiment: MIC, microtiter broth dilution (NCCLS M100-S14), H. influenzae 1218 (susceptible)
Method in brief: as §1

[6] = S. pneumoniae 1016 (susceptible)
[7] = H. influenzae 1218 (susceptible)

Row | SMILES | MIC S. pneumo. 1016 [1, 6] | MIC S. pneumo. 1175 ([2]; S. pneumoniae 1175 (mefA)) | MIC S. pneumo. 1095 ([3]; S. pneumoniae 1095 (ermB)) | MIC S. pyogenes 1079 ([4]; S. pyogenes 1079 (ermB)) | MIC H. influenzae 1218 [5, 7] | MIC S. pneumo. 1016 ([1]; Streptococcus pneumoniae 1016) | MIC S. pneumo. 1175 ([2]; Streptococcus pneumoniae 1175) | MIC S. pneumo. 1095 ([3]; Streptococcus pneumoniae 1095) | MIC S. pyogenes 1079 ([4]; Streptococcus pyogenes 1079) | MIC H. influenzae 1218 ([5]; Haemophilus influenzae 1218)
1 | CCC1OC(=O)C(C)C(=O)C(C)C(OC2OC(C)CC(N(C)C)C2O)C(C)(OC)CC(C)C(=O)C(C)C2N(CC3CCN(Cc4ccnc5ccccc45)CC3)C(=O)OC12C (centres unmarked) [15.02] | <0.06 µg/mL | 0.5 µg/mL (≈ 0.587 µM) | >64.00 µg/mL | >64.00 µg/mL | 32 µg/mL (≈ 37.6 µM) |  |  |  |  | 
2 | CCC1OC(=O)C(C)C(=O)C(C)C(OC2OC(C)CC(N(C)C)C2O)C(C)(OC)CC(C)C(=O)C(C)C2N(CC3CCN(Cc4cnc5ccccc5c4)CC3)C(=O)OC12C (centres unmarked) [15.03] | <0.06 µg/mL | 0.25 µg/mL (≈ 0.294 µM) | >64.00 µg/mL | >64.00 µg/mL | 8 µg/mL (≈ 9.4 µM) |  |  |  |  | 
3 | CCC1OC(=O)C(C)C(=O)C(C)C(OC2OC(C)CC(N(C)C)C2O)C(C)(OC)CC(C)C(=O)C(C)C2N(CC3CCN(Cc4ccc(OC)nc4)CC3)C(=O)OC12C (centres unmarked) [15.04] | <0.06 µg/mL | 0.5 µg/mL (≈ 0.602 µM) | >64.00 µg/mL | >64.00 µg/mL | 16 µg/mL (≈ 19.3 µM) |  |  |  |  | 
4 | CCC1OC(=O)C(C)C(=O)C(C)C(OC2OC(C)CC(N(C)C)C2O)C(C)(OC)CC(C)C(=O)C(C)C2N(CC3CCN(Cc4cccc(OC)n4)CC3)C(=O)OC12C (centres unmarked) [15.05] | <0.06 µg/mL | 0.5 µg/mL (≈ 0.602 µM) | >64.00 µg/mL | >64.00 µg/mL | 8 µg/mL (≈ 9.63 µM) |  |  |  |  | 
5 | CCC1OC(=O)C(C)C(=O)C(C)C(OC2OC(C)CC(N(C)C)C2O)C(C)(OC)CC(C)C(=O)C(C)C2N(CC3CCN(Cc4cccnc4OC)CC3)C(=O)OC12C (centres unmarked) [15.06] | <0.06 µg/mL | 0.5 µg/mL (≈ 0.602 µM) | >64.00 µg/mL | >64.00 µg/mL | 32 µg/mL (≈ 38.5 µM) |  |  |  |  | 
6 | CCC1OC(=O)C(C)C(=O)C(C)C(OC2OC(C)CC(N(C)C)C2O)C(C)(OC)CC(C)C(=O)C(C)C2N(CC3CCN(Cc4ccc(-c5ccccn5)cc4)CC3)C(=O)OC12C (centres unmarked) [15.07] | <0.06 µg/mL | 1 µg/mL (≈ 1.14 µM) | >64.00 µg/mL | >64.00 µg/mL | 32 µg/mL (≈ 36.5 µM) |  |  |  |  | 
7 | CCC1OC(=O)C(C)C(=O)C(C)C(OC2OC(C)CC(N(C)C)C2O)C(C)(OC)CC(C)C(=O)C(C)C2N(CC3CCN(Cc4cnc(-c5ccccc5)[nH]4)CC3)C(=O)OC12C (centres unmarked) [15.08] | <0.06 µg/mL | 1 µg/mL (≈ 1.15 µM) | >64.00 µg/mL | >64.00 µg/mL | 2 µg/mL (≈ 2.31 µM) |  |  |  |  | 
8 | CCC1OC(=O)C(C)C(=O)C(C)C(OC2OC(C)CC(N(C)C)C2O)C(C)(OC)CC(C)C(=O)C(C)C2N(CC3CCN(Cc4ccno4)CC3)C(=O)OC12C (centres unmarked) [15.09] | <0.06 µg/mL | 0.5 µg/mL (≈ 0.632 µM) | >64.00 µg/mL | >64.00 µg/mL | 16 µg/mL (≈ 20.2 µM) |  |  |  |  | 
9 | CCC1OC(=O)C(C)C(=O)C(C)C(OC2OC(C)CC(N(C)C)C2O)C(C)(OC)CC(C)C(=O)C(C)C2N(CC3CCN(Cc4c[nH]nn4)CC3)C(=O)OC12C (centres unmarked) [15.10] | <0.06 µg/mL | 8 µg/mL (≈ 10.1 µM) | >64.00 µg/mL | >64.00 µg/mL | 4 µg/mL (≈ 5.06 µM) |  |  |  |  | 
10 | CCC1OC(=O)C(C)C(=O)C(C)C(OC2OC(C)CC(N(C)C)C2O)C(C)(OC)CC(C)C(=O)C(C)C2N(CC3C4CN(C(=O)OC(C)(C)C)CC43)C(=O)OC12C (centres unmarked) [16.01] | 0.25 µg/mL (≈ 0.309 µM) | 25 µg/mL (≈ 30.9 µM) | 50 µg/mL (≈ 61.9 µM) | >100.00 µg/mL | 1.56 µg/mL (≈ 1.93 µM) |  |  |  |  | 
11 | CCC1OC(=O)C(C)C(=O)C(C)C(OC2OC(C)CC(N(C)C)C2O)C(C)(OC)CC(C)C(=O)C(C)C2N(CC3C4CN(C(=O)c5cccnc5)CC43)C(=O)OC12C (centres unmarked) [16.02] | 0.02 µg/mL (≈ 0.0246 µM) | 0.78 µg/mL (≈ 0.959 µM) | 3.12 µg/mL (≈ 3.84 µM) | >100.00 µg/mL | 0.78 µg/mL (≈ 0.959 µM) |  |  |  |  | 
12 | CCC1OC(=O)C(C)C(=O)C(C)C(OC2OC(C)CC(N(C)C)C2O)C(C)(OC)CC(C)C(=O)C(C)C2N(CC3C4CN(C(=O)c5cc(F)ccc5F)CC43)C(=O)OC12C (centres unmarked) [16.03] | 0.01 µg/mL (≈ 0.0118 µM) | 0.5 µg/mL (≈ 0.59 µM) | 1.56 µg/mL (≈ 1.84 µM) | 50 µg/mL (≈ 59 µM) | 0.5 µg/mL (≈ 0.59 µM) |  |  |  |  | 
13 | CCC1OC(=O)C(C)C(=O)C(C)C(OC2OC(C)CC(N(C)C)C2O)C(C)(OC)CC(C)C(=O)C(C)C2N(CC3C4CN(Cc5cccnc5)CC43)C(=O)OC12C (centres unmarked) [16.04] | 0.03 µg/mL (≈ 0.0375 µM) | >100.00 µg/mL | 3.12 µg/mL (≈ 3.9 µM) | >100.00 µg/mL | 0.5 µg/mL (≈ 0.626 µM) |  |  |  |  | 
14 | CCC1OC(=O)C(C)C(=O)C(C)C(OC2OC(C)CC(N(C)C)C2O)C(C)(OC)CC(C)C(=O)C(C)C2N(CC3C4CN(C(=O)c5cccc(C#N)c5)CC43)C(=O)OC12C (centres unmarked) [16.05] | 0.01 µg/mL (≈ 0.0119 µM) | 1.56 µg/mL (≈ 1.86 µM) | 1.56 µg/mL (≈ 1.86 µM) | 3.12 µg/mL (≈ 3.73 µM) | 0.5 µg/mL (≈ 0.597 µM) |  |  |  |  | 
15 | CCC1OC(=O)C(C)C(=O)C(C)C(OC2OC(C)CC(N(C)C)C2O)C(C)(OC)CC(C)C(=O)C(C)C2N(C3CN(Cc4ccccc4)C3)C(=O)OC12C (centres unmarked) [Example 1.01, benzyl] |  |  |  |  |  | <0.06 µg/mL | 0.12 µg/mL (≈ 0.158 µM) | <0.06 µg/mL | >64.00 µg/mL | 0.5 µg/mL (≈ 0.66 µM)
16 | CCC1OC(=O)C(C)C(=O)C(C)C(OC2OC(C)CC(N(C)C)C2O)C(C)(OC)CC(C)C(=O)C(C)C2N(C3CN(Cc4ccccn4)C3)C(=O)OC12C (centres unmarked) [Example 1.02, (pyridin-2-yl)methyl] |  |  |  |  |  | <0.06 µg/mL | 0.12 µg/mL (≈ 0.158 µM) | 0.12 µg/mL (≈ 0.158 µM) | >64.00 µg/mL | 0.25 µg/mL (≈ 0.329 µM)
